Patent US20170146538A1, “PRL-3 AS A BIOMARKER FOR THE PROGNOSIS OF CANCER AND A TARGET FOR THERAPY” (Agency for Science, Technology and Research, priority 2014, published 2017)

Tests used:
Type in all cases: cell-based, human
TF1-ITD cells = assay: Western blot analysis of TF1-ITD cells upon FLT3 or Src inhibition; settings: various concentrations, 24 h, dose-dependent
Protocol: (§1) FIG. 2. […] Whole cell lysates were subjected to western blot analysis with indicated antibodies. GAPDH, loading control. A. (a-d) Western blot analysis of AML cells upon FLT3 inhibition. […] C. (a-b) Western blot analysis of AML cells upon Src inhibition.
(§2) Cells were lysed using modified RIPA buffer (50 mM Tris-HCl, 150 mM NaCl, 1% NP-40, pH 8.0, 1×protease inhibitor cocktail) and lysates were subjected to western blotting with indicated primary antibodies. Proteins recognized by the antibodies were detected using the Chemiluminescent Detection Kit (Pierce, Thermo Scientific, Rockford, Ill.).
(§3) Since STAT5 was known to be a critical downstream target of FLT3-ITD (Mizuki et al, 2000), we tested STAT5 expression level after treatment with FLT3-specific inhibitors; PKC412 or CEP-701 (Odgerel et al, 2007; Smith et al, 2004). […] We next examined whether FLT3-ITD-induced PRL-3 expression might be mediated by JAK or Src, two distinct upstream activators of STAT5 (Robinson et al, 2005; Spiekermann et al, 2003). […] To investigate the role of Src-mediated phosphorylation of STAT5 in FLT3-ITD positive AML cells. AML cells were treated with two distinct Src kinase inhibitors, SU6656 and PP2 (Blake et al, 2000; Nam et al, 2002).

MOLM-14 cells = assay: Western blot analysis of MOLM-14 cells upon FLT3 inhibition; settings: various concentrations, 24 h, dose-dependent
Protocol: as §1, §2, §3

TF1-PRL-3 cells = assay: MTS cell viability assay of TF1-PRL-3 cells treated with inhibitors; settings: 72 hr; for reduction in cell number compared to DMSO-treated control cells: 5 μM
Description: FIG. 4. PRL-3 specifically activates c-Jun through ERK and JNK signaling pathways. A. SEAP reporter assay results measuring AP-1 activity in TF-1 cells overexpressing GFP (TF1-GFP) or GFP-PRL-3 (TF1-PRL-3) (mean±SD, n=3). B. (a-b) PRL-3 specifically upregulates c-Jun but not c-Fos. (a) Western blot analysis of TF1-GFP, TF1-PRL-3 and TF1-ITD cells. (b) Western blot analysis after knock-down of endogenous PRL-3 in TF1-ITD cells. GAPDH, loading control. NS, control non-silencing siRNA. C. (a-d) PRL-3-mediated upregulation of c-Jun is dependent on ERK and JNK pathways. (a) Western blot analysis after knock-down of endogenous PRL-3 in TF1-ITD and MOLM-14 cells. (b) Western blot analysis of TF1-GFP and TF1-PRL-3 cells. (c-d) Western blot analysis after knock-down of ERK1/2 or JNK in TF1-PRL-3 cells. GAPDH, loading control. NS, control non-silencing siRNA. D. […] Error bars represent the mean±SD from three independent experiments. AML Cells (1×10^4) were seeded into each well of 96-well tissue culture plates in 100 μl growth media and viable cells were measured after seeding with different inhibitors for 72 hr using the CellTiter^96 Aqueous cell proliferation assay kit. (Promega). Briefly, an aliquot of 20 μl MTS mixture was added at the indicated time of assay and reactions were performed at 37° C. for 2 hours. And absorbance was read at 490 nm wavelength using TECAN microplate reader. After establishment of linear relationship between cell numbers and absorbance from each cell line, acquired absorbance converted to cell number.

SMILES	PRL-3 protein levels (TF1-ITD cells)	phosphorylation of STAT5 (TF1-ITD cells)	phosphorylation of Src (TF1-ITD cells)	reduction in cell number compared to DMSO-treated control cells (TF1-PRL-3 cells)	also measured
CO[C@@H]1[C@H](N(C)C(=O)c2ccccc2)C[C@H]2O[C@]1(C)n1c3ccccc3c3c4c(c5c6ccccc6n2c5c31)C(=O)NC4 [PKC412]	inhibited	inhibited	inhibited		phosphorylation of FLT3 (TF1-ITD cells): inhibited; PRL-3 protein levels (MOLM-14 cells): inhibited; phosphorylation of FLT3 (MOLM-14 cells): inhibited; phosphorylation of STAT5 (MOLM-14 cells): inhibited; phosphorylation of Src (MOLM-14 cells): inhibited
CC(C)(C)n1nc(-c2ccc(Cl)cc2)c2c(N)ncnc21 [PP2]	inhibited	inhibited	inhibited		
Oc1c2ccccc2c2c3c(cccc13)N=N2 [SP600125]				around 50%	
CN(C)S(=O)(=O)c1ccc2c(c1)/C(=C/c1cc3c([nH]1)CCCC3)C(=O)N2 [SU6656]	inhibited	inhibited	inhibited		
N#CC(=C(/N)Sc1ccccc1N)/C(C#N)=C(\N)Sc1ccccc1N [U0126]				around 50%	
COc1cc(/C=C/C(=O)CC(=O)/C=C/c2ccc(O)c(OC)c2)ccc1O [curcumin]					cell number, % of DMSO-treated cells (TF1-PRL-3 cells; 15 μM): around 50%
